Test results published in US8778923B2, “GLP-1 receptor modulators” (Receptos, Inc., priority 2011, dated 2014).
pEC50: −log10 of the molar value.

Target: T1, GLP-1R (Homo sapiens, UniProt P43220)
T1 construct: host or cells: CRE-bla CHO-K1
Assay: EC20 GLP-1(9-36) PAM cAMP assay: dose response of compound in the presence of fixed concentration of GLP-1(9-36)
Type: cell-based
Conditions: GLP-1R CRE-bla CHO-K1 cells, compound dose response in presence of fixed concentration of GLP-1(9-36)
How it was run: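 Positive allosteric modulation read as cAMP rise: 12-point compound titration combined with a fixed EC20 level of GLP-1(9-36) on GLP-1R CHO-K1 cells, IBMX present, 30 min at 37 °C. Luminescent HitHunter signal converted to cAMP; nonlinear fit gave EC50 and Emax.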

T1 sequence (P43220 24-463): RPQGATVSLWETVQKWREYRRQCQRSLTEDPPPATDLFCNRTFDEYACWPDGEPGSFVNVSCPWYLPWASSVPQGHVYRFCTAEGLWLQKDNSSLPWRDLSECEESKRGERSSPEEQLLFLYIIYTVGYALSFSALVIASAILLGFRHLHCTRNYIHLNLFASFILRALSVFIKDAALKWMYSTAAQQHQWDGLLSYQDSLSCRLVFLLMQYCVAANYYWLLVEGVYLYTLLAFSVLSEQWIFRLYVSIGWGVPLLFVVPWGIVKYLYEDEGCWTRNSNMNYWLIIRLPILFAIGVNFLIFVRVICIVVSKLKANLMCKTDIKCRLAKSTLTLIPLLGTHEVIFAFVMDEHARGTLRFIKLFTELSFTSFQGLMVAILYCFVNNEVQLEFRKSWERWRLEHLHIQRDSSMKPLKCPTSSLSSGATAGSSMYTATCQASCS
T1 sequence (P01275 100-127 partner limits assumed): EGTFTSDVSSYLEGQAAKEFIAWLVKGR

pEC50: 5.60 to 6.10
Compound: CCCCCCCOc1ccc(-c2cnc(-c3ccc(C[C@H](NC(=O)c4ccc(C(C)(C)C)cc4)C(=O)NCC(=O)NS(C)(=O)=O)cc3)nc2)cc1 [Compound 381, (S)-4-(tert-butyl)-N-(3-(4-(5-(4-(heptyloxy)phenyl)pyrimidin-2-yl)phenyl)-1-((2-(methylsulfonamido)-2-oxoethyl)amino)-1-oxopropan-2-yl)benzamide]
